According to patent US20250221960A1, “COMPOSITIONS AND METHODS FOR THE TREATMENT OF DEPRESSION” (Janssen Pharmaceuticals, Inc., priority 2022, published 2025):

What was measured:
Format in all cases: in vivo, human
[1] = test system: subjects with MDD; test: Biomarker signature subtyping of MADRS treatment outcome (Example 4)
Protocol: Serum or plasma was prepared from the samples of venous blood. Measurements of human CRP and IL-6-R were performed in serum using an MSD Sector 6000 with the kits #K151STD and K151ALC (MesoScale Discovery, Rockville, MD). Human TNFα was quantified in serum using a Simoa HD-1 analyzer with kit #143 (Quanterix, Lexington, MA). Human Dynorphin was assayed in plasma using a SpectraMax M plate reader (Molecular devices, San Jose, CA) with kit #CSB-E09128h (Cusabio, Wuhan, China). All measures were performed according to kit manufacturer's recommendations.
As used in the following biomarker assay analysis, treatment (TRT) refers to treatment with an SSRI/SNRI plus Aticaprant and placebo (PBO) refers to treatment with an SSRI/SNRI plus placebo.
Treatment Outcome: Change in clinical scale at the of end of the double period. Negative values indicate improvement in depression levels relative to baseline levels. The more negative the change, the greater the improvement.
Sig^Pos: Patient meeting the criteria defined by signature of biomarkers and/or clinical scales.
3 MM: Inflammatory biomarker signature with positive status defined by CRP>3 mg/L and (TNFα>4 pg/mL or sIL6R>25 ng/ml).
4 MM: Inflammatory biomarker signature with positive status defined by high dynorphin (δ1) or 3 MM with moderate dynorphin (δ2) subtypes, specifically: DYN>δ1 pg/mL or (DYN>δ2 pg/mL and CRP>3 mg/L and (TNFα>4 pg/ml or sIL6R>25 ng/ml)). In certain embodiments, the 4 MM DYN cutoffs are as follows: Dyn>50 OR (3 MM and Dyn>8); Dyn>24 OR (3 MM and Dyn>8), or Dyn>11.4 and 3 MM.
TE Sig^Pos: Treatment Effect in Signature Positive group: (Average mean MADRS change in placebo-Average mean MADRS change in treatment) in Sig^Pos group.
TE Sig^Neg: Treatment Effect in Signature Negative group.
Sig Adv: Signature Advantage (interaction) Difference in TE between signature groups: Sig Adv=TE Sig^Pos−TE Sig^Neg.
The effect of biomarker signatures on patient response to treatment is summarized in graphical form using two panel box plots in FIG. 25. […] Red color represents placebo and teal represents aticaprant. Rectangular boxes span Diamonds and error bars represent mean and 95% Confidence Interval (CI) of treatment outcome by treatment arm and biomarker signature status. In the signature positive group, the treatment effect (difference in average treatment outcome between treatment arms) was of 6.29 MADRS points (One sided p=0.07, effect size=0.75). While in the signature negative groups, the treatment effect was 1.59 MADRS points. In other words, subjects who are biomarker signature positive improve by an additional 4.7 points […] relative to placebo when treated with aticaprant, compared to subjects who are biomarker signature negative. This signature advantage of 4.7 MADRS points represents the interaction of biomarker signature status with treatment effect. Treatment effects, signature advantage, and corresponding p values are assessed using a linear regression model for treatment outcome with independent variables for treatment, biomarker signature status, and their interaction. All p-values are one sided. Significant is defined as nominal one sided p value <0.05.

[2] = test system: subjects with MDD; test: ASEX sexual functioning, Example 1
Excerpt: As used herein, the term “decrease in sexual functioning” refers to reducing or lessening of one or more components of the human sex drive, i.e., sexual functioning. In some embodiments, the sexual functioning comprises one or more of sexual drive, sexual arousal, vaginal lubrication, erection, orgasm achievement, or orgasm satisfaction. In other embodiments, the sexual functioning comprises sexual drive. In further embodiments, the sexual functioning comprises vaginal lubrication satisfaction. In further embodiments, the sexual functioning comprises orgasm achievement. In yet other embodiments, the sexual functioning comprises orgasm satisfaction. Desirably, the patient's sexual functioning is assessed at the time of initial administration of the aticaprant. Thus, the patient's sexual functioning while taking aticaprant can be compared to the patient's sexual functioning before administration of aticaprant. Sexual functioning may be assessed by using standard scales and techniques such as the Arizona Sexual Experience Scale (ASEX). The ASEX is used to investigate whether aticaprant has a further positive or negative effect on sexual function. The ASEX is 5 item rating scale administered to patients that quantifies sexual drive, sexual arousal, vaginal lubrication or penile erection, ability to reach orgasm and satisfaction. Scores range from 5 to 30, and two different versions of the scale are available (males and females).
Patients had their sexual functioning measured using a standard, well accepted rating scale: ASEX. See, Table 32.

[3] = Completion / early withdrawal, Example 1; details: Full Safety Analysis Set; 10 mg, N = 85
Excerpt: Patients who passed the screening phase entered a lead in phase followed by a double-blind phase. Patients who responded to placebo during the lead in phase were labelled as non-responders. […] The double-blind treatment phase then continued for an additional 6 weeks, after which patients entered a withdrawal period.
Of the 121 subjects in the enriched population (60 in aticaprant and 61 in placebo group), 117 (96.7%) completed the study. The overall completion rate for the full ITT analysis set is 95%. This contrasts with completion rates of approximately 85% for studies of adjunctive aripiprazole (Pae, CNS Drugs, 2011; 25, 109-127) and 45-62% for adjunctive quetiapine (El Khalili cited above). In total 4 subjects (3.3%) discontinued the study: 2 subjects in placebo and 2 subjects in aticaprant treatment group. See, Tables 30 and 31.

Cc1cc(C)cc(C2CCCN2Cc2ccc(Oc3ccc(C(N)=O)cc3F)cc2)c1 (stereo not drawn) [aticaprant, 3-fluoro-4-4-2-(3,5-dimethylphenyl) pyrrolidin-1-yl-methylphenoxybenzamide]
treatment effect in biomarker signature positive patients ([1]; 3 MM and DYN>δ signature (δ=11.5)): very large treatment effect
average aticaprant response in biomarker signature negative patients ([1]; 3 MM or DYN signature negative): worse than that of placebo
signature advantage ([1]; 3 MM or high DYN signature, in more than 60% of patients): 3-8 point
signature advantage (TE SigPos - TE SigNeg) ([1]; 3 MM signature): 4.7 MADRS points
effect size in signature positive group ([1]; 3 MM signature positive): 0.75
treatment effect in signature positive group (placebo - treatment MADRS change) ([1]; 3 MM signature positive (21% of MDD), end of double-blind): 6.3 MADRS points
improvement compared to biomarker signature negative counterpart ([1]; 4 MM signature (63% of MDD)): 6 points
MADRS points difference at end DB relative to placebo ([1]; 4 MM signature positive (63% of MDD)): 4.6 MADRS points
treatment effects of 4 MM signatures ([1]; DYN>δ1 or (3 MM and DYN>δ2), range of δ1): ≥ 4.5 MADRS points
signature advantage of 4 MM signatures ([1]; in 38-63% of patients): > 5 point
ASEX score: Relative % Change ([2]; Endpoint vs Baseline, n = 85): −6.91%
ASEX score: Absolute Change ([2]; Endpoint vs Baseline, n = 85, lower score indicates improvement): −1.47
sexual functioning during treatment ([2]; based on assessment at time of initial administration): does not experience a decrease in sexual functioning
mean change from treatment baseline (SD) in ASEX total score ([2]; to week 6): -1.5 (4.02) points
Reason For Withdrawal/Termination: Adverse event [3]: 1 (1.2%)
